# Reference: patent publication US6054437A, “Method for inducing death of neoplastic cells using piperazine derivatives” (Hitachi Chemical Research Center, Inc., priority 1997, dated 2000)
# Structures can show the parent of a compound that is named as a salt.
# Tests used:
# [1] = tested on: KB-V-1 (resistant cells); experiment: Drug accumulation assay ([3H]-vinblastine), resistant cells; assay type: cell-based, human; conditions: KB-V-1, 20 μM NCO-700 + vinblastine
# Protocol: (§1) 1. Drug Accumulation Assays
# (§2) where the effect of NCO-700 on the uptake of radioactive (^3 H)-vinblastine, an anticancer drug, is measured in cultured cancer cells, that are both drug-resistant and drug-sensitive (Reference 3).
# (§3) In the first two in vitro assays, the drug accumulation assay and the cell survival assay, a human pharyngeal carcinoma cell line (KB-V-1) which is highly resistant to anticancer drugs was used. This cell line was developed by Drs. Ira Pastan and Michael Gottesman of the National Cancer Institute, by step-wise selection in colchicine of drug-resistant cells. The control cancer cell line (KB-3), from which the resistant cell lines were derived, is sensitive to anticancer drugs.
# Measurement of [^3 H]-vinblastine accumulation was performed by the methods developed in the laboratory of Drs. […] In this method, KB-V-1 and KB-3 cells were plated in 10% fetal bovine serum at a density of 3×10^5 cells per well in 24-well Costar plates. The next day, the growth medium was replaced with Dulbecco's modified Eagle's medium with or without (control cells) 20 μM NCO-700. After ten minutes, the medium was removed and replaced with assay medium (0.5 ml) containing 0.1 μCi, (13 pmol) [^3 H]-vinblastine in the presence or absence of 20 μM NCO-700. After an additional 30 min, the medium was removed, the plates were washed three times in ice-cold phosphate-buffered saline, the cells were detached with trypsin, and radioactivity determined by scintillation counting.
# [2] = tested on: HS-578T (breast); experiment: Cancer cell survival assay, HS-578T; assay type: cell-based, human; conditions: seven days, alone
# Protocol: (§4) Cell survival was assayed in cultured tumor cells. From 500-1000 cells per well were plated in 24-welled culture dishes and exposed to drug for seven days. After drug exposure, a computerized cell imaging technique was utilized to ascertain the number of viable cells remaining in each culture. From the data, survival curves were plotted and a ED50 (drug concentration that permits 50% cell survival) were calculated.
# (§5) The cancer cell survival assay is an important additional in vitro assay to assess the anti-neoplastic activity of compounds as the cells are given a prolonged exposure (seven days) to the drug. FIGS. 9-16 show the effect of increasing the dose of NCO-700 on the survival of a number of cancer cell lines. […] In the figures, the vertical axis is the object area, which is the number of surviving cancer cells calculated by a computer.
# [3] = tested on: KB-3 (sensitive); experiment: Cell survival assay with vinblastine, sensitive cells; assay type: cell-based, human
# Protocol: where the effect of NCO-700 to enhance cancer cell killing by vinblastine was measured.
# as §3, with “drugs. The resistant KB-V-1 cell line is approximately 275 times more resistant to vinblastine than the sensitive KB-3 line and has a greatly amplified mdr gene which generates the observed resistance.” for “drugs.”
# The cell survival experiments shown above were performed by plating KB-3 (sensitive) and KB-V-1 (resistant) cells in 32 mm well plastic dishes at a cell density of 300-500 cells per well. Vinblastine and NCO-700 were added 16 hours after the initial cell plating. After 10 days of incubation at 37°, cell colonies were stained and counted.
# [4] = tested on: KB-3 (sensitive cells); experiment: Drug accumulation assay ([3H]-vinblastine), sensitive cells; assay type: cell-based, human; conditions: KB-3, 20 μM NCO-700 + vinblastine
# Protocol: as §1, §2
# as §3, with “drugs. The resistant KB-V-1 cell line is approximately 275 times more resistant to vinblastine than the sensitive KB-3 line and has a greatly amplified mdr gene which generates the observed resistance.” for “drugs.”
# Measurement of [^3 H]-vinblastine accumulation was performed by the methods developed in the laboratory of Drs. Gottesman and Pastan (Fojo et al., Cancer Res. 45:3002-3007, 1985). […] After an additional 30 min, the medium was removed, the plates were washed three times in ice-cold phosphate-buffered saline, the cells were detached with trypsin, and radioactivity determined by scintillation counting.
# [5] = tested on: HL-60 (leukemia); experiment: Cancer cell death assay (LDH release), leukemia line; assay type: cell-based, human; conditions: compound alone, 24 hours
# Protocol: FIG. 4 is a graph showing the relationship between LDH released and the concentration of NCO-700 in cancer cell death assays of human cancer cell lines MCF-7 (breast), HL-60 (leukemia), and HEP-129 (liver).
# (§6) 1. Cancer Cell Death Assay
# (§7) Cell death was measured quantitatively by the release of a marker intracellular enzyme, lactate dehydrogenase (LDH), from damaged or killed cells. LDH released into the extracellular fluid, was measured 24 hours after drug exposure to cancer cells and the enzyme activity was determined by the method of Decker et al. (J. Immunolog Methods 15:61-99, 1988).
# (§8) All cell lines used in the present study were obtained from the American Type Tissue Culture Laboratory and cultured according to their specifications. All were human cancer lines unless otherwise noted. The following cell lines and their tissue of origin used in our studies were:
# (§9) The first assays performed measured the anti-neoplastic activity of NCO-700, alone, in cell death assays of a wide variety of human cancer cells. The results of these experiments are shown in FIGS. 1-6, where a dose-response curve of NCO-700 versus % LDH release is plotted, with higher values of LDH released indicating greater anti-neoplastic activity (apoptosis).
# [6] = tested on: WIDR (colon); experiment: Cancer cell survival assay, WIDR; assay type: cell-based, human; conditions: seven days, alone
# Protocol: as §4, §5
# FIGS. 26-31 show the effect of increasing the dose of TOP-008 against a number of cancer cell lines. […] For example, if the activity of NCO-700 and TOP-008 are compared against the human colon cancer cell line WIDR (FIG. 16 in Experiment 1 versus FIG. 31) it is seen that the effective dose of TOP-008 is much lower in this particular assay.
# [7] = tested on: LN (prostate); experiment: Cancer cell survival assay, LN; assay type: cell-based, human; conditions: seven days, alone
# Protocol: as §4, §5
# [8] = Acute toxicity test, i.v. (LD50); conditions: rat, in vivo, iv, rats
# Description: This non-toxicity of the compounds makes it possible to administer the compounds to patients daily for a long period of time without interruption, without significant side effects, until the cancer tumors are suppressed. The non-toxicity, the apoptotic effects and the reversal of multidrug resistance of the compounds will change the procedures of conventional chemotherapy completely.
# [9] = tested on: ovarian cancer cell lines SW-626 and AN-3-CA; experiment: Cancer cell death assay (LDH release), ovarian lines; assay type: cell-based, human; conditions: compound alone, 24 hours
# Protocol: FIG. 1 is a graph showing the relationship between LDH released and the concentration of NCO-700 in cancer cell death assays of human ovarian cancer cell lines SW-626 and AN-3-CA.
# as §6, §7, §8, §9
smiles,measurement,setting,value
"CCOC(=O)[C@@H]1O[C@H]1C(=O)N[C@@H](CC(C)C)C(=O)N1CCN(Cc2ccc(OC)c(OC)c2OC)CC1 [NCO-700, Bis[ethyl (2R,3R)-3-[(S)-3-methyl-1-[4-(2,3,4-trimethoxyphenylmethyl)piperazin-1-ylcarbonyl]butylcarbamoyl]oxirane-2-carboxylate] Sulfate]",vinblastine accumulation,[1],1.56 ± 0.03 pmole vinblastine/mg protein
same,anti-neoplastic activity (cell survival),[2],significant anti-neoplastic activity
same,IC50,"[3]; Homo sapiens, KB-3, + 25 μM NCO-700, read-out: vinblastine to kill 50% of cells",1.6 ng/mL
same,enhancement of killing by vinblastine,[3]; sensitive KB-3 cells,slight enhancement of the killing of sensitive KB-3 cells
same,vinblastine accumulation,[4],3.17 ± 0.09 pmole vinblastine/mg protein
same,anti-neoplastic activity (LDH release),[5],did not respond
same,anti-neoplastic activity (cell survival),[6],significant anti-neoplastic activity
same,anti-neoplastic activity (cell survival),[7],significant anti-neoplastic activity
same,LD50,[8],317 mg/kg
same,anti-neoplastic activity (LDH release),[9],partly responsive
